pEC50: −log10 of the molar value. Like-named read-outs stand apart in the source and are kept apart here.

In one series the test system is MC38-hFolRα cells. The series is described as follows: In vitro cell killing (cell proliferation assay, Cell Titer-Glo) on MC38-hFolRα cells. In kind it is cell-based. To be noted: for cell killing (in words): MC38-hFolRα cells (FolRα positive). The text has this:
(§1) Anti-FolRα antibody conjugated to hemiasterlin with a cathepsin cleavable ValCit linker was used as control. FolRα negative A549 and MC38 cells were purchased from ATCC (American Type Culture Collection, Manassas, VA, USA), and FolRα positive Igrov1 cells were licensed from NCI (National Cancer Institute at Frederick, Maryland). MC38-hFolRα cells were generated at Sutro by stable transfection of a vector expressing human FolRa. All the cell lines were maintained in DMEM:F12 (1:1), high glucose (Corning, Corning, NY) supplemented with 10% heat-inactivated fetal bovine serum (Thermo Scientific, Grand Island, NY), 2 mM glutamax (Thermo Scientific, Grand Island, NY), and 1× Penicillin/Streptomycin (Corning, Corning, NY). Cytotoxicity effects of the ADCs were measured with a cell proliferation assay. A total of 625 cells for Igrov1 and A549, and 312 cells for MC38-hFolRα in a volume of 25 microliters were seeded in a 384-well flat bottom white polystyrene plate the day before the actual assay starts. ADCs were formulated at 2× starting concentration in cell culture medium and filtered through MultiScreen HTS 96-Well Filter Plates (Millipore, Billerica, Massachusetts). Filter sterilized samples were serial diluted (1:3) under sterile conditions and added onto cells in triplicate. Plates were cultured at 37° C. in a CO2 incubator for 120 hours for Igrov1 and A549, and 72 hours for MC38-hFolRα cells. For cell viability measurement, 30 microliters of Cell Titer-Glo® reagent (Promega Corp, Madison, WI) was added into each well, and plates were processed as per product instructions. Relative luminescence was measured on an ENVISION® plate reader (Perkin-Elmer; Waltham, MA). Relative luminescence readings were converted to % viability using untreated cells as controls. Data was fitted with non-linear regression analysis using log (inhibitor) vs. response, variable slope, and 4-parameter fit equation using GraphPad Prism.
(In general: Cellular ATP, detected with luciferase, serves as a proxy for viable cell number.)

The next series deals with A549 cells. The series is described as follows: In vitro cell killing (cell proliferation assay, Cell Titer-Glo) on FolRα negative A549 cells. In kind it is cell-based. To be noted: for cell killing (in words): A549 cells (hFolRα negative).
Source text: as §1

The next series has as its system Igrov1 cells. The series is described as follows: In vitro cell killing (cell proliferation assay, Cell Titer-Glo) on FolRα positive Igrov1 cells. In kind it is cell-based. To be noted: for cell killing (in words): Igrov1 cells (FolRα positive).
Source text: as §1

The target of another series is E. coli β-Glucuronidase (Escherichia coli, UniProt P05804). The series is described as follows: β-Glucuronidase reactivity: enzymatic cleavage of linker-payloads monitored by LCMS. In kind it is in vitro ADME. To be noted: 10 μM linker-payload, 300 U/mL enzyme, 50 mM sodium acetate, 37° C., release of (207) from (107), (201) from (108). Here is the method:
The susceptibility of the β-glucuronide linker-payloads to enzymatic cleavage was evaluated by treatment of the (107) and (108) linker-payloads with β-glucuronidase, as shown in FIG. 3A-FIG. 3D. This assay allowed the confirmation of the expected release of Exatecan (207) and 3-amino hemiasterlin (201). The cleavage product was monitored using LCMS. 945 μL of 50 mM sodium acetate, 5 μL of 2 mM (107)/(108) linker-payloads stock (final conc.10 μM) and 50 μL of 6 KU/mL E. coli β-Glucuronidase in 0.2% NaCl (final conc.300 U/mL) were mixed and incubated at 37° C. Aliquots (50 μL) were taken at t=0 h, 0.5 h, 1 h, 2 h, 4 h and 24 h, treated with 3 volumes of quench solution (methanol:acetonitrile 5:95 v/v) and analyzed by LCMS.

E. coli β-Glucuronidase, sequence (P05804 whole entry): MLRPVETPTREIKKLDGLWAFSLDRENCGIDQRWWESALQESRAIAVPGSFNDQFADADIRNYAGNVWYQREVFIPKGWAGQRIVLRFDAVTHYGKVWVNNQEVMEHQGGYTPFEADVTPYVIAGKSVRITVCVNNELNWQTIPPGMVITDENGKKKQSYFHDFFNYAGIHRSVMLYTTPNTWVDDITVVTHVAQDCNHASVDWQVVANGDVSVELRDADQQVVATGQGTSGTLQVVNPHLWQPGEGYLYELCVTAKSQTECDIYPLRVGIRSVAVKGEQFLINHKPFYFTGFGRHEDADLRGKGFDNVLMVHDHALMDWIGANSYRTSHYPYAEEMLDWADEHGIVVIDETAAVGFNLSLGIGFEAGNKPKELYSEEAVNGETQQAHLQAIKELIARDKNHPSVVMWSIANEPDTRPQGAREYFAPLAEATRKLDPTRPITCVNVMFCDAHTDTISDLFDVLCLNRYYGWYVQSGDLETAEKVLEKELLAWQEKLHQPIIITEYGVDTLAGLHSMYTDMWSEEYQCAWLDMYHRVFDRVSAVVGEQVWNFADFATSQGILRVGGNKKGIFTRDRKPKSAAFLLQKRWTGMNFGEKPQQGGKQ

As to `CC[C@@]1(O)C(=O)OCc2c1cc1n(c2=O)Cc2c-1nc1cc(F)c(C)c3c1c2[C@@H](N)CC3` [Compound 207, Exatecan], the pEC50 (in general, the EC50 on a negative log10 scale, so that one unit is a factor of ten) with MC38-hFolRα cells (72 h) is 8.64; in the series with A549 cells (Homo sapiens, A549, 120 h) it was 8.47; with Igrov1 cells (Homo sapiens, IGROV-1, 120 h) it was 9.57. Moreover, the Span in the series on MC38-hFolRα cells (MC38-FolRa cells, 72 hours) is 95%; with A549 cells (A549 cells, 120 hours), 99%; with Igrov1 cells (Igrov1 cells, 120 hours) it was 91%. Moreover, the “cell killing (in words)” value in the series on MC38-hFolRα cells, with A549 cells and in the series on Igrov1 cells was “good cell killing” in each case. The “potency relative to free Hemiasterlin (201)” value with Igrov1 cells (free payloads, statement for the three cell lines tested (Igrov1, MC38-hFolRα, A549)) was “about 3 fold”.

As for `CC[C@@]1(O)C(=O)OCc2c1cc1n(c2=O)Cc2c-1nc1cc(F)c(C)c3c1c2[C@@H](NC(=O)OCc1ccc(O[C@@H]2O[C@H](C(=O)O)[C@@H](O)[C@H](O)[C@H]2O)c(CNC(=O)CCNC(=O)[C@H](CNC(=O)CCOCCOCCOCCOCCOCCOCCOCCOCCOCCOCCOCCOC)NC(=O)CCCCC(=O)N2Cc4ccccc4C#Cc4ccccc42)c1)CC3` [Compound 107, DBCO β-Glucuronide-PEG12-Exatecan], on E. coli β-Glucuronidase, the “linker-payload after 30 min with β-glucuronidase (in words)” value is “most of the (107) and (108) in the reaction mixture had disappeared”.

3-amino hemiasterlin [Compound 201]: the Span in the series with MC38-hFolRα cells (MC38-FolRa cells, 72 hours) stood at 82%; in the series on A549 cells (A549 cells, 120 hours), 83%; in the series with Igrov1 cells (Igrov1 cells, 120 hours), 88%. The negative logarithm of the EC50 (pEC50) in the series on MC38-hFolRα cells (MC38-FolRa cells, 72 hours, read-out: EC50) is 8.26; with A549 cells (A549 cells, 120 hours, read-out: EC50) it was 7.89; in the series with Igrov1 cells (Igrov1 cells, 120 hours, read-out: EC50) it was 9.02. In addition, the “cell killing (in words)” value in the series on MC38-hFolRα cells, with A549 cells and in the series with Igrov1 cells was “good cell killing” in each case.

As for `CN[C@H](C(=O)N[C@H](C(=O)N(C)[C@H](/C=C(\C)C(=O)O)C(C)C)C(C)(C)C)C(C)(C)c1cccc(NC(=O)OCc2ccc(O[C@@H]3O[C@H](C(=O)O)[C@@H](O)[C@H](O)[C@H]3O)c(CNC(=O)CCNC(=O)[C@H](CNC(=O)CCOCCOCCOCCOCCOCCOCCOCCOCCOCCOCCOCCOC)NC(=O)CCCCC(=O)N3Cc4ccccc4C#Cc4ccccc43)c2)c1` [Compound 108], the “linker-payload after 30 min with β-glucuronidase (in words)” value on E. coli β-Glucuronidase is “most of the (107) and (108) in the reaction mixture had disappeared”.
